# Structures can show the parent of a compound that is named as a salt. Where two headings read alike, the source gives them in different places.
# Legend:
# h5-HT6 = h5-HT6 (Homo sapiens (Human), UniProt P50406); experiment: h5-HT6 binding assay with [3H]LSD on HEK-293 membranes; settings: read-out: h5HT6 binding Ki
# Method: Receptor binding was performed using membrane fractions prepared from the HEK-293 cell line recombinantly expressing rat 5-HT7 receptors (NCBI accession NM_022938). Compound affinity for the rat 5-HT7 receptor subtype was evaluated by competitive radioligand binding assays using 5-carboxamido[^3H]tryptamine ([^3H]5-CT) (Amersham Biosciences, cat. 90000403) detection. HitHunter™ cAMP assays are in-vitro based competitive immunoassays. The assay was performed on the HEK-293 cell line stably transfected with r5-HT7 receptor. Cells were pre-incubated with test compounds for 10 minutes. For antagonist testing, the cells were then challenged with 100 nM 5-CT for 20 minutes. Cells were then lysed and cAMP measured according to manufacturers protocol (Amersham, cat. NET791250UC) or [^3H]mesulergine (Amersham, cat. TRK1041). The assay was performed on membranes prepared from HEK-293 cells stably transfected with h5-HT6. Following centrifugation, membranes were resuspended and incubated for 60 min at room temperature with 1.7 nM [^3H]LSD in the presence of increasing concentration of test compounds. Nonspecific binding was defined in the presence of 10 μM clozapine (Tocris, cat. TRK1068). Homogenized HEK-293 membranes expressing the human SERT were incubated in 50 mM Tris-HCl (pH 7.5), 120 mM NaCl, 5 mM KCl with [^3H]-citalopram (3 nM) with or without test compounds. Nonspecific binding was determined in the presence of 10 μM fluoxetine. Radioactivity readouts and Ki values were performed as previously described for r5-HT7. […] Compounds were assayed in their free form or as salts, as indicated in the Examples section above.
# h5HT2C = h5HT2C (Homo sapiens (Human), UniProt P28335); experiment: h5HT2C binding
# h5HT2C, sequence (P28335 33-458): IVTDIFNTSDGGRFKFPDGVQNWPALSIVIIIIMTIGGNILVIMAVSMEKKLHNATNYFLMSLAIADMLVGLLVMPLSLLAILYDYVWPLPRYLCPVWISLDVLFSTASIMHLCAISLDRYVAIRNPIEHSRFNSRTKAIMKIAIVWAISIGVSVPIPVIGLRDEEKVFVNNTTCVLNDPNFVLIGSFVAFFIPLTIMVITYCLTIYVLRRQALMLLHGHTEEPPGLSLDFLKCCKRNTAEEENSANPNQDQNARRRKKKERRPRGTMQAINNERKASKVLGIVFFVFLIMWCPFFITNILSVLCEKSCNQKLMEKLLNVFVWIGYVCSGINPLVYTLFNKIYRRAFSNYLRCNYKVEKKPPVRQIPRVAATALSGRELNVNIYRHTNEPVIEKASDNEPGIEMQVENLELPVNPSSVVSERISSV
# h5HT2A = h5HT2A (Homo sapiens (Human), UniProt P28223); experiment: h5HT2A binding
# h5HT2A, sequence (P28223 whole entry): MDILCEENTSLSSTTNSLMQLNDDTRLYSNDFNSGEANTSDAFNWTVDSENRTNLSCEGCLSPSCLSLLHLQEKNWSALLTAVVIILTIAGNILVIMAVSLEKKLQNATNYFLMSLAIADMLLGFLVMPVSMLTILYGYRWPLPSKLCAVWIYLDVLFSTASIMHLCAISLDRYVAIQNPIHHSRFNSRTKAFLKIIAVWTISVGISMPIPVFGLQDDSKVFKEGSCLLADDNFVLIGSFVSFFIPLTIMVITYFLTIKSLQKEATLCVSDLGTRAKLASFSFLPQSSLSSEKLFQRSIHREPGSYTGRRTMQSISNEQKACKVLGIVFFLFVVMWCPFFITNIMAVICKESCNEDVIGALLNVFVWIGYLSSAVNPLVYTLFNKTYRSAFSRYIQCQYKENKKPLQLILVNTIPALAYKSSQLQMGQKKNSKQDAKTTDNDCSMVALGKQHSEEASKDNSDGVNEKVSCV
# human SERT = human SERT (Homo sapiens (Human), UniProt P31645); experiment: human SERT binding assay with [3H]-citalopram on HEK-293 membranes; settings: read-out: hSERT binding Ki
# human SERT, sequence (P31645 whole entry): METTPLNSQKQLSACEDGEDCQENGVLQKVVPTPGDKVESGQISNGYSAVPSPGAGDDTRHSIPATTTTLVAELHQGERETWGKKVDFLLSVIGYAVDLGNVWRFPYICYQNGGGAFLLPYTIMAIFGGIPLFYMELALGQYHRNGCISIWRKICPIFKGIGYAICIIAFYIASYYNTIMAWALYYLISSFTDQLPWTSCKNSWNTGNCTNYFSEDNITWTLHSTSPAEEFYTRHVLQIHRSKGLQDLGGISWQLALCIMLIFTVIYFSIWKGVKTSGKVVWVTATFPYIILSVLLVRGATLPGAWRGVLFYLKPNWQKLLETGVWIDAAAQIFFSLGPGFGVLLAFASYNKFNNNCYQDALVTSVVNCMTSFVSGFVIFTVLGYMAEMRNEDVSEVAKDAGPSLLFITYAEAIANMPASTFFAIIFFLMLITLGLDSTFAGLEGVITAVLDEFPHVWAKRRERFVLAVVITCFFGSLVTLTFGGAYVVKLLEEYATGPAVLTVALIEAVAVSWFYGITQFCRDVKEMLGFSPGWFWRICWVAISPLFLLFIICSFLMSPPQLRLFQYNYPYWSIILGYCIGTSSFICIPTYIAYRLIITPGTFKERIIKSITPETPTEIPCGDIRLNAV
# h5HT2B = h5HT2B (Homo sapiens (Human), UniProt P41595); experiment: h5HT2B binding
# h5HT2B, sequence (P41595 whole entry): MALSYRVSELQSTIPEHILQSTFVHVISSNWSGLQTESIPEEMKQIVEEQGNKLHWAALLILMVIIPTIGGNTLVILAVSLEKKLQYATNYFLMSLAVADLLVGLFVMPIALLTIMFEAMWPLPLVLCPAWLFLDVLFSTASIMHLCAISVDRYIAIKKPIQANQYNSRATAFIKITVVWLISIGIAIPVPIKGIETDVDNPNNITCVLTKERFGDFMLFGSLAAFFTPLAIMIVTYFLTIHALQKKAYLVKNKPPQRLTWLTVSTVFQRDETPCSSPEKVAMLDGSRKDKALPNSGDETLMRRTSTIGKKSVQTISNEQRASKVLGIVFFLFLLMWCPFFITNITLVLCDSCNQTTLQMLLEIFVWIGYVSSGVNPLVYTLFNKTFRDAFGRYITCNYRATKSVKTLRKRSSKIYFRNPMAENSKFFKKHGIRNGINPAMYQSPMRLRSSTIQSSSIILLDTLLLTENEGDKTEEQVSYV
# rat 5-HT7 receptor = rat 5-HT7 receptor (Rattus norvegicus (Rat), UniProt P32305); experiment: r5-HT7 binding assay, competitive radioligand binding with [3H]5-CT
# rat 5-HT7 receptor, sequence (P32305 1-435): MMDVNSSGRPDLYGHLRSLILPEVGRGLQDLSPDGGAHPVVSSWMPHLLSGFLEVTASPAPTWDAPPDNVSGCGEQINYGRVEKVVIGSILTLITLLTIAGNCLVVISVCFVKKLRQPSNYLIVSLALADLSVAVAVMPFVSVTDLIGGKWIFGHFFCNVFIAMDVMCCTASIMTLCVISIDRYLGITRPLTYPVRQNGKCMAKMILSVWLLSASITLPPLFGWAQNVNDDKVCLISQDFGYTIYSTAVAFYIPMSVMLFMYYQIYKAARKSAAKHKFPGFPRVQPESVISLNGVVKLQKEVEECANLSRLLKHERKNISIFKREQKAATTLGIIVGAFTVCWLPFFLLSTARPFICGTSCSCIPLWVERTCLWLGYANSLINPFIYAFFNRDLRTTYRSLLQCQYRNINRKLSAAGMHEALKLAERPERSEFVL
# Procedure, shortened: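 Membranes from HEK-293 cells recombinantly expressing rat 5-HT7 were used for competitive radioligand binding with [3H]5-CT, with radioactivity read-out and Ki values derived. In the functional cAMP immunoassay, stably transfected HEK-293 cells were pre-incubated with compound for 10 minutes, challenged with 100 nM 5-CT for 20 minutes, then lysed.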
# r5-HT7 receptor = r5-HT7 receptor (Rattus norvegicus (Rat), UniProt P32305); experiment: HitHunter cAMP assay, antagonist testing against 100 nM 5-CT; format: cell-based
# r5-HT7 receptor, sequence (P32305 1-435): as above
# Procedure, shortened: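 Whole r5-HT7-transfected HEK-293 cells first received test compound for 10 min. They were then exposed to 100 nM 5-CT for 20 min before lysis and competitive immunoassay of cAMP. Affinity came from displacement of [3H]5-CT on membranes of the same recombinant line, expressed as Ki.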
# [1] = h5-HT6, [3H]LSD, HEK-293 membranes
# [2] = rat 5-HT7 receptor, HEK-293 membranes
# [3] = antagonist testing, 100 nM 5-CT challenge, HEK-293 r5-HT7, read-out: R5HT7 cAMP pKb (converted)
# h5-HT6, sequence (P50406 whole entry): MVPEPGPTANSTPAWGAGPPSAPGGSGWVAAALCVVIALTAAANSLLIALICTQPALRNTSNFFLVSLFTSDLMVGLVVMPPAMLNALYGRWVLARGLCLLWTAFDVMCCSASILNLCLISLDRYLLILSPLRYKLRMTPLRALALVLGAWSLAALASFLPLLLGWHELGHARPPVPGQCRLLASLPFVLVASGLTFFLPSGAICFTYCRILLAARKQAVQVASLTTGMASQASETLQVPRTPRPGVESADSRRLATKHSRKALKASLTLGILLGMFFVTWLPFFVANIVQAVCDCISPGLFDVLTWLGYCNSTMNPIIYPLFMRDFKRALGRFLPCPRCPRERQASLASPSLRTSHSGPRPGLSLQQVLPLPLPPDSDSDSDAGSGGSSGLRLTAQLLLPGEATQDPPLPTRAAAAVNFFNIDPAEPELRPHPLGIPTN
Structure (SMILES),Ki (h5-HT6; [1]) [nM],Ki (h5HT2C) [nM],Ki (h5HT2A) [nM],Ki (human SERT) [nM],Ki (h5HT2B) [nM],Ki (rat 5-HT7 receptor; [2]) [nM],Kb (r5-HT7 receptor; [3]) [nM],Kb (r5-HT7 receptor) [nM],"Ki (h5-HT6; h5-HT6, HEK-293 membranes, [3H]LSD) [nM]","Ki (rat 5-HT7 receptor; rat 5-HT7, HEK-293 membranes) [nM]"
"CC(Oc1ccc(Br)cc1OC1CNC1)c1cccc(Cl)c1 (racemic) [Example 111, (±)-3-[5-Bromo-2-[1-(3-chloro-phenyl)-ethoxy]-phenoxy]-azetidine]",268,331,73,118,69,10,,,,
"CC(Oc1ccc(Cl)cc1OC1CNC1)c1ccc(C(F)(F)F)o1 (racemic) [Example 146, (±)-3-[5-Chloro-2-[1-(5-trifluoromethyl-furan-2-yl)-ethoxy]-phenoxy]-azetidine]",558,,,59,,12,7.94,,,
"Cc1ccc2c(c1)C(Oc1ccc(Cl)cc1OC1CNC1)CC2 (racemic) [Example 158, (±)-3-[5-Chloro-2-(6-methyl-indan-1-yloxy)-phenoxy]-azetidine]",,146,8,67,36,15,10,,,
"Clc1ccc(OC2CCc3ccc(Cl)cc32)c(OC2CNC2)c1 (racemic) [Example 159, (±)-3-[5-Chloro-2-(6-chloro-indan-1-yloxy)-phenoxy]-azetidine]",,196,6,21,41,17,7.94,,,
"C[C@@H](Oc1ccc(C(F)(F)F)cc1OC1CNC1)c1cccc(C(F)(F)F)c1 (stereo in doubt) [Example 200, 3-[5-Trifluoromethyl-2-[1-(3-trifluoromethyl-phenyl)-ethoxy]-phenoxy]-azetidine]",,5000,605,224,7570,31,158,,,
"FC(F)(F)c1ccc(COc2ccc(Br)cc2OC2CNC2)o1 [Example 10, 3-[5-Bromo-2-(5-trifluoromethyl-furan-2-ylmethoxy)-phenoxy]-azetidine]",50,,,39,,7,6.31,,,
"Clc1ccccc1COc1ccc(Br)cc1OC1CNC1 [Example 15, 3-[5-Bromo-2-(2-chloro-benzyloxy)-phenoxy]-azetidine trifluoroacetate]",45,,,5,,17,631,,,
"Fc1cccc(COc2ccc(Br)cc2OC2CNC2)c1 [Example 17, 3-[5-Bromo-2-(3-fluoro-benzyloxy)-phenoxy]-azetidine trifluroacetate]",39,,,4,,10,50.1,,,
"Cc1nc(COc2ccc(Cl)cc2OC2CNC2)cs1 [Example 29, 4-[2-(Azetidin-3-yloxy)-4-chloro-phenoxymethyl]-2-methyl-thiazole]",,1110,225,27,529,83,126,,,
"Clc1cccc(COc2ccc(Cl)cc2OC2CNC2)c1 [Example 37, 3-[5-Chloro-2-(3-chloro-benzyloxy)-phenoxy]-azetidine]",89,,,7,,8,126,,,
"CN1CC(Oc2cc(Cl)ccc2OCc2cccc(Cl)c2)C1 [Example 38, 3-[5-Chloro-2-(3-chloro-benzyloxy)-phenoxy]-1-methyl-azetidine]",36,,,100,,6,10,,,
"FC(F)(F)c1ccc(COc2ccc(Cl)cc2OC2CNC2)o1 [Example 54, 3-[5-Chloro-2-(5-trifluoromethyl-furan-2-ylmethoxy)-phenoxy]-azetidine]",77,,,28,,6,7.94,,,
"CN1CC[C@@H](Oc2cc(Cl)ccc2OCc2cccc(Cl)c2)C1 [Example 59, (R)-3-[5-Chloro-2-(3-chloro-benzyloxy)-phenoxy]-1-methyl-pyrrolidine]",84,,,353,,27,15.8,,,
"Clc1cccc(COc2ccc(Br)cc2OC2CCNCC2)c1 [Example 65, 4-[5-Bromo-2-(3-chloro-benzyloxy)-phenoxy]-piperidine]",41,,,14,,11,126,,,
"Clc1ccc(OCC2CCCCC2)c(OC2CNC2)c1 [Example 73, 3-(5-Chloro-2-cyclohexylmethoxy-phenoxy)-azetidine trifluoroacetate]",12,,,,,23,,251,,
"FC(F)(F)c1cccc(COc2ccc(Cl)cc2OC2CNC2)n1 [Example 79, 2-[2-(Azetidin-3-yloxy)-4-chloro-phenoxymethyl]-6-trifluoromethyl-pyridine]",,290,69,3,248,26,50.1,,,
"C[C@@H](Oc1ccc(Br)cc1OC1CNC1)c1cccc(C(F)(F)F)c1 [Example 113, (R)-3-[5-Bromo-2-[1-(3-trifluoromethyl-phenyl)-ethoxy]-phenoxy]-azetidine]",496,490,206,,122,11,,,,
"FC(F)(F)c1ccc2c(c1)C(Oc1ccc(Cl)cc1OC1CNC1)CC2 (centres unmarked) [Example 160, 3-[5-Chloro-2-(6-trifluoromethyl-indan-1-yloxy)-phenoxy]-azetidine]",,146,5,210,25,15,5.01,,,
"FC(F)(COc1ccc(Cl)cc1OC1CNC1)c1ccccc1 [Example 184, 3-[5-Chloro-2-(2,2-difluoro-2-phenyl-ethoxy)-phenoxy]-azetidine]",,38,5,124,12,23,50.1,,,
"Fc1cccc(CCOc2ccc(Cl)cc2OC2CNC2)c1 [Example 191, 3-[5-Chloro-2-[2-(3-fluoro-phenyl)-ethoxy]-phenoxy]-azetidine]",,53,8,7,11,8,,,,
"Clc1ccc(CCOc2ccc(Cl)cc2OC2CNC2)cc1 [Example 192, 3-[5-Chloro-2-[2-(4-chloro-phenyl)-ethoxy]-phenoxy]-azetidine]",,140,9,88,22,8,,,,
"Fc1ccc(CCOc2ccc(Cl)cc2OC2CNC2)cc1 [Example 193, 3-[5-Chloro-2-[2-(4-fluoro-phenyl)-ethoxy]-phenoxy]-azetidine]",,71,11,9,14,5,,,,
"COc1ccc(CCOc2ccc(Cl)cc2OC2CNC2)cc1 [Example 194, 3-[5-Chloro-2-[2-(4-methoxy-phenyl)-ethoxy]-phenoxy]-azetidine]",,81,4,141,195,4,,,,
"FC(F)(F)c1ccc(OCc2ccc(C(F)(F)F)o2)c(OC2CNC2)c1 [Example 199, 3-[5-Trifluoromethyl-2-(5-trifluoromethyl-furan-2-ylmethoxy)-phenoxy]-azetidine]",,526,103,128,1220,18,39.8,,,
"FC(F)(F)c1ccc(OCc2ccccc2)c(OC2CNC2)c1 [Example 201, hydrochloride]",,498,67,56,184,31,50.1,,,
"Brc1ccc(Oc2ccccc2)c(OC2CNC2)c1 [Example 244, 3-(5-Bromo-2-phenoxy-phenoxy)-azetidine]",,,,5000,,,251,,46,20

# — US9981909B2 (Janssen Pharmaceutica NV, priority 2008, dated 2018)
